US6319929A, “Suksdorfin analogs, compositions thereof, and methods for making and using thereof” (priority 1998, dated 2001)

Test system: U937 cells
Assay: Toxicity to uninfected U937 cells
Type: cell-based
Details: Homo sapiens, U-937; U937 cell line
Experimental: Suksdorfin was also tested on an acute HIV-1 infection of the promonocytic cell line, U937. This was done again to determine drug specificity but this time on a monocytic cell line.
HIV Growth Inhibition Assay: The T cell line, H9, and the promonocytic cell line, U937, were maintained separately in continuous culture with complete medium (RPMI 1640 and […] fetal calf serum (FCS) at 5% CO2 and 37° C. Cell lines were used in experiments only when in log phase of growth; whereas, uninfected peripheral blood mononuclear cells (PBMCs) were first stimulated with PHA (1 μg/ml) for 3 days. All cell targets were incubated with HIV-1 (IIIB isolate, TCID50 10 ^4 IU/mi, at a multiplicity of infection of 0.1-0.01 IU/cell) for 1 hour at 37° C. and 5% CO2. The cell lines and PBMCs were washed thoroughly to remove unabsorbed virions and resuspended at 4×10^5 cells/ml in complete medium or complete medium with 10% v/v interleukin (Pettinato, et al. J. Amer. Pharm. Asso. […] After incubation for 4 days at 37° C., cell density of uninfected cultures was determined by counting cells in a Coulter counter to assess toxicity of the test compound. […] P24 in the culture medium was quantitated against a standard curve containing known amounts of p24. The effective (EC50) and inhibitory (IC50) concentrations (for anti-HIV activity and cytotoxicity, respectively) were determined graphically. […]

How did the IC50 turn out when `CC(=O)O[C@@H]1[C@H](OC(=O)CC(C)C)c2c(ccc3ccc(=O)oc23)OC1(C)C` [Suksdorfin, suksdorfin] was run?
The IC50 was greater than 20 µg/mL.
